Test results reported in patent US7361686B2, “Compounds for the treatment of metabolic disorders” (Wellstat Therapeutics Corporation, priority 2003, dated 2008).

Tested on: db/db mice
Assay: Antidiabetic effects in db/db mice (serum chemistry after 4 weeks of daily oral dosing)
Type: in vivo
Details: for blood glucose, effect in words: versus vehicle; for Triglycerides ± SEM (serum) / Glucose ± SEM (serum glucose) / Free Fatty Acids ± SEM (serum): male obese db/db mice, 100 mg/kg daily oral, treatment for 4 weeks, mean ± SEM; for Triglycerides ± SEM (serum): vehicle 621 ± 54, lean 96.4 ± 6.4; for Glucose ± SEM (serum glucose): vehicle 747 ± 19, lean control 193 ± 11; for Free Fatty Acids ± SEM (serum): vehicle 2415 ± 134, lean 1637 ± 105
Description: Db/db mice have a defect in leptin signaling, leading to hyperphagia, obesity and diabetes. Moreover, unlike ob/ob mice on a C57BL/6J background, db/db mice on a C57BLKS background undergo failure of their insulin-producing pancreatic islet cells, resulting in progression from hyperinsulinemia (associated with peripheral insulin resistance) to hypoinsulinemic diabetes.
Male obese (db/db homozygote) C57B/Ksola mice approximately 8 weeks of age, were obtained from Jackson Labs (Bar Harbor, Me.) and randomly assigned into groups of 5-7 animals such that the body weights (40-45 g) and serum glucose levels (≧300 mg/dl in fed state) were similar between groups; male lean (db/+heterozygote) mice served as cohort controls. A minimum of 7 days was allowed for adaptation after arrival. All animals were maintained under controlled temperature (23° C.), relative humidity (50±5%) and light (7:00-19:00), and allowed free access to standard chow (Formulab Diet 5008, Quality Lab Products, Elkridge, Md.) and water.
Treatment cohorts were given daily oral doses of vehicle, compound CO (100 mg/kg), or Compound CP (100 mg/kg) for 4 weeks. At the end of the treatment period 100 μl of venous blood was withdrawn in a heparinized capillary tube from the retro-orbital sinus for serum chemistry analysis.

[1] = db/db mice, after 4 weeks of daily oral dosing, 100 mg/kg
[2] = db/db mice, after 4 weeks of daily oral dosing, 100 mg/kg, versus vehicle-treated db/db mice

CCOC(=O)CCC/C=C/c1cccc(OCc2c(C)cccc2C)c1 [Cpd. CP, 6-[3-(2,6-Dimethylbenzyloxy)-phenyl]-hex-5-enoic acid ethyl ester]
blood glucose, effect in words [1]: significant reduction | serum free fatty acids, effect in words [2]: reduced | serum triglycerides, effect in words [2]: reduced | Triglycerides ± SEM (serum): 150 ± 34 mg/dL | Glucose ± SEM (serum glucose): 404 ± 101 mg/dL | Free Fatty Acids ± SEM (serum): 1765 ± 39 µM

CCOC(=O)CC/C=C/c1cccc(OCc2c(C)cccc2C)c1 [Cpd. CO, 5-[3-(2,6-Dimethylbenzyloxy)-phenyl]-pent-4-enoic acid ethyl ester]
blood glucose, effect in words [1]: significant reduction | serum triglycerides, effect in words [2]: reduced | Triglycerides ± SEM (serum): 320 ± 30 mg/dL | Glucose ± SEM (serum glucose): 651 ± 36 mg/dL | Free Fatty Acids ± SEM (serum): 2689 ± 70 µM
